{"source": "patent US10723998B2", "about": "“Application of ethyl p-methoxycinnamate and derivatives thereof in maintaining self-renewal and pluripotency of stem cells” (NORTHEAST NORMAL UNIVERSITY, priority 2015, dated 2020)", "key": {"mouse teratoma cells P19 [1]": {"tested_on": "mouse teratoma cells P19", "test": "Formation of microspheres of suspendedly cultured stem cells (soft agar, MTT dyeing)", "format": "cell-based", "conditions": "5 μg/mL, P19 cells on 0.5% soft agar, 7 d, compared with DMSO control; FIG. 4", "method": "5 g agar was weighed and placed in a flask, then 100 mL of ultra-pure water was added, and the mixture was mixed well, sealed, and then autoclaved for 30 min. In a super clean bench, 9 mL of pre-heated (50-60° C.) serum-free DMEM culture medium was pipetted into a 10 mL centrifuge tube, then 1 mL of uncooled 5% agar was added, and rapidly mixed well with a pipette, resulting in 0.5% agar. 1 mL of 0.5% agar was pipetted into one well of a 6-well plate and cooled at room temperature for 20-30 min, resulting in a 0.5% soft agar culture medium.\nIn the super clean bench, D-Hanks was gently added to the surface of the soft agar culture medium, and the D-Hanks was discarded after being gently shaken 2 to 3 times. Cleaning was repeated once. The mouse teratoma cells P19 were gently inoculated on the surface of the soft agar culture medium at a cell density of 4×10^5 cells/well. After the cell inoculation, ethyl p-methoxycinnamate was added to 1 mL of DMEM culture medium containing 10% fetal calf serum, mixed well, and then gently added to the experimental group. A final concentration of ethyl p-methoxycinnamate was 5 μg/mL. The control group was treated with DMSO. […]"}, "Oct4 promoter": {"tested_on": "Oct4 promoter", "test": "Oct4 promoter luciferase reporter assay (pGL3-Oct4P-Basic) in P19 cells", "format": "cell-based, mouse", "conditions": "5 μg/mL, 12-24 h, DMSO control, FIG. 1", "excerpt": "According to a method described in literature (Yang H M, Do H J, Oh J H, et al. Characterization of putative cis-regulatory elements that control the transcriptional activity of the human Oct4 promoter[J]. Journal of cellular biochemistry, 2005, 96(4):821-830), the promoter of Oct4 gene was picked and cloned into pGL3-Basic, so as to construct pGL3-Oct4P-Basic reporter plasmid. One day before transfection, mouse teratoma cells P19 were inoculated into a 6-well cell culture plate at a density of 2×10^5 cells/well to make the cells grown to about 80% before transfection. […]\nLuciferase Reporter Assay System and FluoStar Optima were used to assay the luciferase activity of the transfected cell lysis solution. To 45 μL of the cell lysis solution was added 5 μL of Assay Cocktail reagent, after they were mixed well, 100 μL of Luciferin reaction solution was added, and fluorescence counting in 2 s was measured using FluoStar Optima instrument, which reflected the activity level of the studied plasmid reporter genes expressing firefly luciferase. […] An absorption value at 450 nm was assayed using a microplate reader, which reflected the activity level of internal reference plasmid pCMV-β-gal expressing β-galactosidase. […] The relative luciferase activity of different samples was calculated through the following equation: […]"}, "mouse teratoma cells P19 [2]": {"tested_on": "mouse teratoma cells P19", "test": "Formation of microspheres of adherently cultured stem cells", "format": "cell-based", "conditions": "5 μg/mL, 3% fetal calf serum DMEM, 22 d, compared with control, FIG. 5", "method": "In a super clean bench, mouse teratoma cells P19 were inoculated in a 6-well plate at a density of 1×10^4 cells/well, and DMEM culture medium containing 10% fetal calf serum was added to result in a final volume of 2 mL. The cell culture plate was gently shaken, so that the cells were uniformly distributed in the cell culture plate, and then placed in a cell incubator to be cultured. After 24 h, the old culture medium were discarded, and 3% fetal calf serum DMEM culture medium containing ethyl p-methoxycinnamate was added, so that the final concentration of ethyl p-methoxycinnamate was 5 μg/mL. The original culture medium was discarded every 24 h, and fresh DMEM culture medium containing 3% fetal calf serum was added, and the final concentration of ethyl p-methoxycinnamate therein was made to be 5 μg/mL likewise. After continuous culture of 22 d, the cells were photographed."}}, "data": [{"compound": "CCOC(=O)C=Cc1ccc(OC)cc1", "note": "[ethyl p-methoxycinnamate]", "values": [{"measurement": "formation of microspheres of suspendedly cultured stem cells", "setting": "mouse teratoma cells P19 [1]", "value": "the P19 cells can form a higher amount of larger and more typical microspheres"}, {"measurement": "effect on the activity of Oct4 promoter (relative luciferase activity)", "setting": "Oct4 promoter", "value": "reached a statistically significant difference (*p<0.05)"}, {"measurement": "formation of microspheres of adherently cultured stem cells", "setting": "mouse teratoma cells P19 [2]", "value": "the P19 cells can form typical microspheres"}]}]}
